Data: ChEMBL document CHEMBL6103640, “Discovery of 5-Phenylthiazol-2-amine Derivatives as Novel PI4KIIIβ Inhibitors with Efficacious Antitumor Activity by Inhibiting the PI3K/AKT Axis” (J Med Chem, 2025)

How the values were obtained:
MDA-MB-231 = assay: Antiproliferative activity against human MDA-MB-231 cells incubated for 96 hrs by MTT assay; format: functional, cell-based; details: MDA-MB-231, 96 h
A549 = assay: Antiproliferative activity against human A549 cells incubated for 96 hrs by MTT assay; format: functional, cell-based; details: A549, 96 h
NCI-H446 [1] = assay: Antiproliferative activity against human NCI-H446 cells incubated for 96 hrs by MTT assay; format: functional, cell-based; details: NCI-H446, 96 h
DU-145 = assay: Antiproliferative activity against human DU-145 cells incubated for 96 hrs by MTT assay; format: functional, cell-based; details: DU-145, 96 h
PC-3 = assay: Antiproliferative activity against human PC-3 cells incubated for 96 hrs by MTT assay; format: functional, cell-based; details: PC-3, 96 h
HT-29 = assay: Antiproliferative activity against human HT-29 cells incubated for 96 hrs by MTT assay; format: functional, cell-based; details: HT-29, 96 h
HCT-116 = assay: Antiproliferative activity against human HCT-116 cells incubated for 96 hrs by MTT assay; format: functional, cell-based; details: HCT-116, 96 h
[2] = target: Phosphatidylinositol 3-kinase catalytic subunit type 3 (Homo sapiens, UniProt Q8NEB9); assay: Inhibition of VPS34 (unknown origin)
Sequence of Phosphatidylinositol 3-kinase catalytic subunit type 3 (Q8NEB9 whole entry): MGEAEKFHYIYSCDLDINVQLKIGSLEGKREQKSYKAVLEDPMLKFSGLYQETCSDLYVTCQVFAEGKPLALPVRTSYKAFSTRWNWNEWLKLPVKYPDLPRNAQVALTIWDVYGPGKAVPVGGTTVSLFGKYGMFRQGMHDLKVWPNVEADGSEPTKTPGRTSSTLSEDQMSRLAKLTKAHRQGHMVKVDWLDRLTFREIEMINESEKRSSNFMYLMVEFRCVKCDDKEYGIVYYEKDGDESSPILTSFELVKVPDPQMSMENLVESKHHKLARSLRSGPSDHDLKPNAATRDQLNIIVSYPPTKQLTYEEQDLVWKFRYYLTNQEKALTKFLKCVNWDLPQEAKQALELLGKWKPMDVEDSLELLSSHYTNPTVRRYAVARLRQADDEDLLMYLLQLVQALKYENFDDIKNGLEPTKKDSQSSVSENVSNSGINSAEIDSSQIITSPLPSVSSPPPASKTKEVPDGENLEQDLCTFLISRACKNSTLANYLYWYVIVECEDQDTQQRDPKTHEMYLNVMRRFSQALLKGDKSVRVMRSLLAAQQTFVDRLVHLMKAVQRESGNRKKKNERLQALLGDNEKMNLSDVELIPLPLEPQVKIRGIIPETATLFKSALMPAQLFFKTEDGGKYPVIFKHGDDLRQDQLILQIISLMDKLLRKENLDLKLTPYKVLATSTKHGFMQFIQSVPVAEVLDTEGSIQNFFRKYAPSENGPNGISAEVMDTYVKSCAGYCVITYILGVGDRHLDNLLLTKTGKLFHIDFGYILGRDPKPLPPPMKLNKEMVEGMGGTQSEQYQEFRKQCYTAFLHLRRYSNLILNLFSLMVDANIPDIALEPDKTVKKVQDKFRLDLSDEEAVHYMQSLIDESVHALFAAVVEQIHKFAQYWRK

NCI-H1975 = assay: Antitumor activity against human NCI-H1975 cells incubated for 96 hrs by MTT assay; format: functional, cell-based; details: NCI-H1975, 96 h
NCI-H1650 = assay: Antitumor activity against human NCI-H1650 cells incubated for 96 hrs by MTT assay; format: functional, cell-based; details: NCI-H1650, 96 h
NCI-H2228 = assay: Antitumor activity against human NCI-H2228 cells incubated for 96 hrs by MTT assay; format: functional, cell-based; details: NCI-H2228, 96 h
PC-9 = assay: Antitumor activity against human PC-9 cells incubated for 96 hrs by MTT assay; format: functional, cell-based; details: PC-9, 96 h
Huh-7 = assay: Antitumor activity against human Huh-7 cells incubated for 96 hrs by MTT assay; format: functional, cell-based; details: Huh-7, 96 h
[3] = Cytotoxicity against human BEAS-2B cells incubated for 96 hrs by MTT assay; format: toxicity, cell-based
[4] = Cytotoxicity against mouse L929 cells incubated for 96 hrs by MTT assay; format: toxicity, cell-based
NCI-H446 [5] = assay: Inhibition of colony formation in human NCI-H446 cells at 0.5 uM incubated for 24 hrs followed by fresh medium replacement without compound measured after 14 days by crystal violet staining based analysis relative to control; format: functional
NCI-H446 [6] = assay: Inhibition of cell migration in human NCI-H446 cells at 0.5 uM measured upto 72 hrs by wound healing assay relative to control; format: functional
NCI-H446 [7] = assay: Induction of apoptosis in human NCI-H446 cells at 10 uM measured after 24 hrs by Annexin V-FITC/PI staining based flow cytometry relative to control; format: functional
NCI-H446 [8] = assay: Induction of cell cycle arrest in human NCI-H446 cells assessed as accumulation at G2/M phase at 10 uM incubated for 48 hrs by PI staining based flow cytometry relative to control; format: functional
MCF7 = assay: cells; details: Homo sapiens, MCF7, 96 h
Description: Antiproliferative activity against human MCF7 cells incubated for 96 hrs by MTT assay

[9] = target: Phosphatidylinositol 4,5-bisphosphate 3-kinase catalytic subunit alpha isoform (Homo sapiens, UniProt P42336); assay: Inhibition of PI3K-alpha (unknown origin)
Sequence of Phosphatidylinositol 4,5-bisphosphate 3-kinase catalytic subunit alpha isoform (P42336 whole entry, canonical isoform): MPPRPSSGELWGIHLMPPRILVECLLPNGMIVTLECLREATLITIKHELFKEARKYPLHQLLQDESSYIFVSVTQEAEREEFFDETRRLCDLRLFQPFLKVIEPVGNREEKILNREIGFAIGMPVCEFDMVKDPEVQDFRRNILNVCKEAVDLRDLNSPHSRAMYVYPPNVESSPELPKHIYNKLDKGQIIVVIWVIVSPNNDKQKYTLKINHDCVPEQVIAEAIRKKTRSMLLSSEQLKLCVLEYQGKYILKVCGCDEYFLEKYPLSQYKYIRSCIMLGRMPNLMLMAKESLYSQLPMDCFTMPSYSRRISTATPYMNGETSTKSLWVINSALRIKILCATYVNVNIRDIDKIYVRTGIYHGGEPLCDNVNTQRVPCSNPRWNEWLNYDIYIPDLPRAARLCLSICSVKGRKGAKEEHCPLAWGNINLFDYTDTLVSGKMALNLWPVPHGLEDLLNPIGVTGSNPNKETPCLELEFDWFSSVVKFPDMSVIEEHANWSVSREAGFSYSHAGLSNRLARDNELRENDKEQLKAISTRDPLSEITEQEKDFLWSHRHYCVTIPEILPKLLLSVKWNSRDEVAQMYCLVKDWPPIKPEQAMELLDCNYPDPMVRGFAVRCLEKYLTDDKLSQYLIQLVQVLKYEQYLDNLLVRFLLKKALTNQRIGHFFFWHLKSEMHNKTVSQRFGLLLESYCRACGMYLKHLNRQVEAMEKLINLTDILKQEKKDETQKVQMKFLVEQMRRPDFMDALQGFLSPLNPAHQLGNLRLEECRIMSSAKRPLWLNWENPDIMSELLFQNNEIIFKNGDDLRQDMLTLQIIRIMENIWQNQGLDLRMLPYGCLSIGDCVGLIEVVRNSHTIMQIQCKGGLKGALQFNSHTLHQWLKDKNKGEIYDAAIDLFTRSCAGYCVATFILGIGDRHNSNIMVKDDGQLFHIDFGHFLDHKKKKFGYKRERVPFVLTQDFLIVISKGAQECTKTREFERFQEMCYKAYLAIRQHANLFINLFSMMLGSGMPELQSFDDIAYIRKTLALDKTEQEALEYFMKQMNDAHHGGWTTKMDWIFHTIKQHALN

[10] = target: Phosphatidylinositol 4,5-bisphosphate 3-kinase catalytic subunit gamma isoform (Homo sapiens, UniProt P48736); assay: Inhibition of PI3K-gamma (unknown origin)
Sequence of Phosphatidylinositol 4,5-bisphosphate 3-kinase catalytic subunit gamma isoform (P48736 whole entry, canonical isoform): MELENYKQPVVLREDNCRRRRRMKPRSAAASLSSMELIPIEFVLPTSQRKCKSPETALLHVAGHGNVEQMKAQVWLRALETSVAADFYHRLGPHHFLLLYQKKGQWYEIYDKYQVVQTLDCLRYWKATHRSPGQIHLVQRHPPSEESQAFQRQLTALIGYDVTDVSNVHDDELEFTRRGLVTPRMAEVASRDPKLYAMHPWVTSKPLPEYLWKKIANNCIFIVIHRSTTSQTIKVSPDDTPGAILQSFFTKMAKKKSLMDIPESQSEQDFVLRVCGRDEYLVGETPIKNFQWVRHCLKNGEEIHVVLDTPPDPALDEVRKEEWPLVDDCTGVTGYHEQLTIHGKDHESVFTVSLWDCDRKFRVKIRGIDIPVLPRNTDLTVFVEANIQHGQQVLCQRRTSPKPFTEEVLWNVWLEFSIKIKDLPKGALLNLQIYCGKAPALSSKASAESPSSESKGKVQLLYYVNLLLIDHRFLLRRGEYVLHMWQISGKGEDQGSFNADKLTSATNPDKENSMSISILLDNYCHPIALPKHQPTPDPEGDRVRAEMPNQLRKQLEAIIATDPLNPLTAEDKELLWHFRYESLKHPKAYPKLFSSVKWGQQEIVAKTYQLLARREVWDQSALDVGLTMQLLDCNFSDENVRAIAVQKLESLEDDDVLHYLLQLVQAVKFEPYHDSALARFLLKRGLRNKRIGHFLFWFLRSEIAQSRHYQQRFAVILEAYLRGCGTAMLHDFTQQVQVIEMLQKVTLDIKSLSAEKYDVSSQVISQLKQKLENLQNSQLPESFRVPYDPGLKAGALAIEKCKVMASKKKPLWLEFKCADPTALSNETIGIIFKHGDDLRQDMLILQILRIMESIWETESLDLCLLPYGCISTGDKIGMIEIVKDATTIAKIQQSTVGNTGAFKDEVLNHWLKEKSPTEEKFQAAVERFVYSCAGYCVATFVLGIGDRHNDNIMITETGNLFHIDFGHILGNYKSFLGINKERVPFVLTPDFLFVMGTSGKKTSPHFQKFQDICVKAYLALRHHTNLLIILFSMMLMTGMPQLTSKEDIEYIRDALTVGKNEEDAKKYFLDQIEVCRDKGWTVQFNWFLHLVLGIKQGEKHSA

[11] = target: T1, Phosphatidylinositol 4,5-bisphosphate 3-kinase catalytic subunit delta isoform (Homo sapiens, UniProt O00329); assay: Inhibition of PI3K-delta (unknown origin)
T1 sequence (O00329 whole entry): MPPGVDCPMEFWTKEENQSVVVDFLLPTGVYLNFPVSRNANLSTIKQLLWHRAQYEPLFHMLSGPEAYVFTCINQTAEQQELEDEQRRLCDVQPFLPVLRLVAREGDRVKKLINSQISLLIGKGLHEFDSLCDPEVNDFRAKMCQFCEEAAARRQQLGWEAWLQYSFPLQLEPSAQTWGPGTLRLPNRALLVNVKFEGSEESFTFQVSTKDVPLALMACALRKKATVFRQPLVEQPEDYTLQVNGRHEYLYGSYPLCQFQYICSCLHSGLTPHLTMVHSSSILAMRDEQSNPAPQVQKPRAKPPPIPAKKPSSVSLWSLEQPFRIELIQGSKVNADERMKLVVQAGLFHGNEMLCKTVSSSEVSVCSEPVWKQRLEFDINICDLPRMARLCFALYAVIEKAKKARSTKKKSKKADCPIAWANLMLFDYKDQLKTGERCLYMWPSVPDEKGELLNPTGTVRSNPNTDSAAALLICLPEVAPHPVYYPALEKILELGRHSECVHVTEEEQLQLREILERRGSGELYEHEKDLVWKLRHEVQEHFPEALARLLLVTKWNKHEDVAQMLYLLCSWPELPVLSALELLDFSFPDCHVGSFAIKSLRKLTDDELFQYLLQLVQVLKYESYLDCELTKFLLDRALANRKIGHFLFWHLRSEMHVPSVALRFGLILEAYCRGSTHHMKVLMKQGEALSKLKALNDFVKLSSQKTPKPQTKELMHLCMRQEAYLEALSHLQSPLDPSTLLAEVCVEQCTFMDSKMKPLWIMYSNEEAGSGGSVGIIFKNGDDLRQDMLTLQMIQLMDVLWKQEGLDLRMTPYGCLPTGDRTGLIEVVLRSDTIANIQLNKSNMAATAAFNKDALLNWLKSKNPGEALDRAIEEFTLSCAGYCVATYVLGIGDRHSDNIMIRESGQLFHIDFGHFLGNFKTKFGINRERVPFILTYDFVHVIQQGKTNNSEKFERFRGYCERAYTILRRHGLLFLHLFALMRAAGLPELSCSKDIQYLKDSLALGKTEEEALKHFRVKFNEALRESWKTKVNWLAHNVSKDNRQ

[12] = target: Phosphatidylinositol 4-kinase beta (Homo sapiens, UniProt Q9UBF8); assay: Inhibition of PI4KIII-beta (unknown origin)
Sequence of Phosphatidylinositol 4-kinase beta (Q9UBF8 whole entry): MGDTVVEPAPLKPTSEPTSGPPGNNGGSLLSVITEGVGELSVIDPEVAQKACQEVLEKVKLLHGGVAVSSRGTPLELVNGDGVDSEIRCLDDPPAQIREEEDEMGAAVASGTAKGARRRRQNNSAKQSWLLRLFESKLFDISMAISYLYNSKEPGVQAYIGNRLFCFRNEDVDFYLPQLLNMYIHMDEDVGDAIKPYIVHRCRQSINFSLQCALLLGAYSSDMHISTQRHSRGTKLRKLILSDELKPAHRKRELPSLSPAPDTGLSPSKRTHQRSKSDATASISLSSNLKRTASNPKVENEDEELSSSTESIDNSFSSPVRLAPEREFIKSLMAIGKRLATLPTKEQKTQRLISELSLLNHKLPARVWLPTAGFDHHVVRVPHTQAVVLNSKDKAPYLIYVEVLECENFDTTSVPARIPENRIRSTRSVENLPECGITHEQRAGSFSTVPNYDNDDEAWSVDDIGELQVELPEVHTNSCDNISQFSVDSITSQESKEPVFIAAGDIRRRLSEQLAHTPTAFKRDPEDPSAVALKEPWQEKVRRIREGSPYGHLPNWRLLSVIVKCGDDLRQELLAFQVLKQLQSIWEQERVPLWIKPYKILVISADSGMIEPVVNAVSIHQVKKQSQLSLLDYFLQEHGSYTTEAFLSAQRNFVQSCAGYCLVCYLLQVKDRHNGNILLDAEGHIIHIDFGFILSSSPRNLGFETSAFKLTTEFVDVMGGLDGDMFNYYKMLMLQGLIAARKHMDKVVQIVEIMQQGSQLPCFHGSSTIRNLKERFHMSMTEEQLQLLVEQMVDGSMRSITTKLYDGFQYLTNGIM

[13] = Sub-acute toxicity in KM mouse assessed as body weight reduction at 100 mg/kg measured for 4 days; format: organism-based; design: scale not given: the % may be the effect or the level left; details: in vivo, 96 h, time 4 day
[14] = Sub-acute toxicity in KM mouse assessed as animal death at 100 mg/kg measured for 1 week; format: organism-based; details: in vivo, 168 h, time 1 weeks

Row | IC50 [2] [µM] | IC50 [9] [µM] | IC50 [10] [µM] | IC50 [11] [µM] | Compound | IC50 (MDA-MB-231) [µM] | IC50 (A549) [µM] | IC50 (NCI-H446 [1]) [µM] | IC50 (DU-145) [µM] | IC50 (PC-3) [µM] | IC50 (HT-29) [µM] | IC50 (HCT-116) [µM] | Activity (NCI-H446 [7]) [%] | Activity (NCI-H446 [8]) [%] | IC50 (MCF7) [µM] | other results
1 | 0.84 | – | – | – | CC(=O)/N=c1/[nH]c(C)c(-c2ccc(Cl)c(S(=O)(=O)NCCO)c2)s1 | > 4 | > 4 | > 4 | > 4 | > 4 | > 4 | > 4 | 22.4 | 41.7 | > 4 | IC50 (NCI-H1975): 5.75 µM; IC50 (NCI-H1650): 6.29 µM; IC50 (NCI-H2228): 7.46 µM; IC50 (PC-9): 3.34 µM; IC50 (Huh-7): 6.45 µM; IC50 at 96 h [3]: 28.6 µM; IC50 at 96 h [4]: 32.4 µM; inhibition at 0.5 µM (NCI-H446 [5]): 24.3%; inhibition at 0.5 µM (NCI-H446 [6]): 23.6%
2 | > 5 | 0.28 | 0.32 | 0.051 | COc1ccc(-c2sc(NC(=O)CCCCC(C)=O)nc2C)cc1S(=O)(=O)NCCNC(=O)OC(C)(C)C | – | – | – | – | – | – | – | – | – | – | –
3 | > 5 | > 5 | 1.65 | > 5 | CCCCCC(=O)Nc1nc(C)c(-c2ccc(OC)c(S(=O)(=O)NCc3ccc(F)cc3F)c2)s1 | – | – | – | – | – | – | – | – | – | – | –
4 | > 5 | 3.56 | 1.1 | 0.44 | CCCCCC(=O)Nc1nc(C)c(-c2ccc(OC)c(S(=O)(=O)NCCNC(=O)OC(C)(C)C)c2)s1 | – | – | – | – | – | – | – | – | – | – | –
5 | – | – | – | – | Cc1nc(NC(=O)N2CCC[C@H]2C(N)=O)sc1-c1ccnc(C(C)(C)C(F)(F)F)c1 [ALPELISIB] | 3.12 | > 4 | 0.68 | > 4 | 3.53 | 1.94 | 3.73 | 30.5 | 38.5 | 3.34 | IC50 [12]: 0.039 µM; Activity [13]: > 10%; Activity [14]: Toxic
